Measured values from patent US20150105252A1, “SUBSTITUTED PYRAZOLES AS HERBICIDES” (E I DU PONT DE NEMOURS AND COMPANY, priority 2013, published 2015).

Tests used:
Assay in all cases: Test C postemergence
[1] = tested on: blackgrass; format: in vivo, Alopecurus myosuroides
Method in brief: (§1)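 Postemergence values come from plants sprayed at the 1- to 4-leaf stage (2–18 cm) in peat moss–vermiculite medium; preemergence values from seeds treated in a loam–sand blend. Both evaluated visually against controls after 13–15 greenhouse days, scale 0–100.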

[2] = tested on: ryegrass, Italian; format: in vivo, Lolium multiflorum
Method in brief: as §1

[3] = tested on: wheat; format: in vivo, Triticum aestivum
Method in brief: as §1

[4] = tested on: galium; format: in vivo, Galium aparine
Method in brief: as §1

[5] = tested on: corn; format: in vivo, Zea mays
Method in brief: as §1

[6] = tested on: crabgrass, large; format: in vivo, Digitaria sanguinalis
Method in brief: as §1

[7] = tested on: foxtail, giant; format: in vivo, Setaria faberii
Method in brief: as §1

[8] = tested on: johnsongrass; format: in vivo, Sorghum halepense
Method in brief: as §1

[9] = tested on: lambsquarters; format: in vivo, Chenopodium album
Method in brief: as §1

[10] = tested on: pigweed; format: in vivo, Amaranthus retroflexus
Method in brief: as §1

[11] = tested on: ragweed; format: in vivo, Ambrosia elation
Method in brief: as §1

[12] = tested on: soybean; format: in vivo, Glycine max
Method in brief: as §1

[13] = tested on: barnyardgrass; format: in vivo, Echinochloa crus-galli
Method in brief: as §1

[14] = tested on: oat, wild; format: in vivo, Avena fatua
Method in brief: as §1

[15] = tested on: kochia; format: in vivo, Kochia scoparia
Method in brief: as §1

[16] = tested on: velvetleaf; format: in vivo, Abutilon theophrasti
Method in brief: as §1

[17] = tested on: chickweed; format: in vivo, Stellaria media
Method in brief: as §1

[18] = Postemergence, 31 g ai/ha, visually evaluated after 13 to 15 days
[19] = postemergence, 62 g ai/ha, scale 0 to 100
[20] = postemergence, 250 g ai/ha, scale 0 to 100 (0 no effect, 100 complete control)
[21] = postemergence, 125 g ai/ha, scale 0 to 100, 0 no effect, 100 complete control

CCOc1cc(C(=O)NC2CC2)nn1Cc1ccnc(OC(F)F)c1 [Compound 133]
Plant response rating (scale of 0 to 100 where 0 is no effect and 100 is complete control), Blackgrass [1, 18]: 5
Blackgrass plant response rating [1, 19]: 5
Plant response rating, Blackgrass [1, 20]: 10
Plant response rating, Blackgrass [1, 21]: 10
Plant response rating (scale of 0 to 100 where 0 is no effect and 100 is complete control), Ryegrass, Italian [2, 18]: 5
Ryegrass, Italian plant response rating [2, 19]: 5
Plant response rating, Ryegrass, Italian [2, 20]: 10
Plant response rating, Ryegrass, Italian [2, 21]: 5
Plant response rating (scale of 0 to 100 where 0 is no effect and 100 is complete control), Wheat [3, 18]: 5
Wheat plant response rating [3, 19]: 5
Plant response rating, Wheat [3, 20]: 30
Plant response rating, Wheat [3, 21]: 15
Plant response rating (scale of 0 to 100 where 0 is no effect and 100 is complete control), Galium [4, 18]: 70
Galium plant response rating [4, 19]: 70
Plant response rating, Galium [4, 20]: 80
Plant response rating, Galium [4, 21]: 70
Plant response rating (scale of 0 to 100 where 0 is no effect and 100 is complete control), Corn [5, 18]: 10
Corn plant response rating [5, 19]: 10
Plant response rating, Corn [5, 20]: 35
Plant response rating, Corn [5, 21]: 10
Plant response rating (scale of 0 to 100 where 0 is no effect and 100 is complete control), Crabgrass, Large [6, 18]: 5
Crabgrass, Large plant response rating [6, 19]: 5
Plant response rating, Crabgrass, Large [6, 20]: 35
Plant response rating, Crabgrass, Large [6, 21]: 10
Plant response rating (scale of 0 to 100 where 0 is no effect and 100 is complete control), Foxtail, Giant [7, 18]: 35
Foxtail, Giant plant response rating [7, 19]: 40
Plant response rating, Foxtail, Giant [7, 20]: 80
Plant response rating, Foxtail, Giant [7, 21]: 50
Plant response rating (scale of 0 to 100 where 0 is no effect and 100 is complete control), Johnsongrass [8, 18]: 5
Johnsongrass plant response rating [8, 19]: 5
Plant response rating, Johnsongrass [8, 20]: 5
Plant response rating, Johnsongrass [8, 21]: 5
Plant response rating (scale of 0 to 100 where 0 is no effect and 100 is complete control), Lambsquarters [9, 18]: 50
Lambsquarters plant response rating [9, 19]: 55
Plant response rating, Lambsquarters [9, 20]: 90
Plant response rating, Lambsquarters [9, 21]: 90
Plant response rating (scale of 0 to 100 where 0 is no effect and 100 is complete control), Pigweed [10, 18]: 50
Pigweed plant response rating [10, 19]: 60
Plant response rating, Pigweed [10, 20]: 90
Plant response rating, Pigweed [10, 21]: 80
Plant response rating (scale of 0 to 100 where 0 is no effect and 100 is complete control), Ragweed [11, 18]: 25
Ragweed plant response rating [11, 19]: 25
Plant response rating, Ragweed [11, 20]: 85
Plant response rating, Ragweed [11, 21]: 75
Plant response rating (scale of 0 to 100 where 0 is no effect and 100 is complete control), Soybean [12, 18]: 85
Soybean plant response rating [12, 19]: 75
Plant response rating, Soybean [12, 20]: 95
Plant response rating, Soybean [12, 21]: 95
Plant response rating (scale of 0 to 100 where 0 is no effect and 100 is complete control), Barnyardgrass [13, 18]: 5
Barnyardgrass plant response rating [13, 19]: 5
Plant response rating, Barnyardgrass [13, 20]: 15
Plant response rating, Barnyardgrass [13, 21]: 5
Plant response rating (scale of 0 to 100 where 0 is no effect and 100 is complete control), Oat, Wild [14, 18]: 5
Oat, Wild plant response rating [14, 19]: 5
Plant response rating, Oat, Wild [14, 20]: 35
Plant response rating, Oat, Wild [14, 21]: 15
Plant response rating (scale of 0 to 100 where 0 is no effect and 100 is complete control), Kochia [15, 18]: 85
Kochia plant response rating [15, 19]: 90
Plant response rating, Kochia [15, 20]: 90
Plant response rating, Kochia [15, 21]: 90
Plant response rating (scale of 0 to 100 where 0 is no effect and 100 is complete control), Velvetleaf [16, 18]: 25
Velvetleaf plant response rating [16, 19]: 45
Plant response rating, Velvetleaf [16, 20]: 70
Plant response rating, Velvetleaf [16, 21]: 35
Plant response rating (scale of 0 to 100 where 0 is no effect and 100 is complete control), Chickweed [17, 18]: 50
Chickweed plant response rating [17, 19]: 60
Plant response rating, Chickweed [17, 20]: 85
Plant response rating, Chickweed [17, 21]: 70
